Source: patent publication US20030045563A1, “Pharmaceutical composition having reduced tendency for drug crystallization” (priority 2001, published 2003)

Test: Test I: turbidity (apparent absorbance at 650 nm) of drug solutions with or without test polymer
Conditions: pH 7 phosphate buffer
[1] = drug 31.3 μg/ml, Dextran 65,000 0.5% w/w
[2] = drug 31.3 μg/ml, Ethylcellulose A15 0.5% w/w
[3] = drug 31.3 μg/ml, Glycerin (non-polymer) 0.5% w/w
[4] = drug 31.3 μg/ml, HPC 80,000 0.5% w/w
[5] = drug 31.3 μg/ml, HPMC E15 0.5% w/w
[6] = drug 31.3 μg/ml, Na CMC 250,000 0.5% w/w
[7] = drug 31.3 μg/ml, PEG 8,000 0.5% w/w
[8] = drug 31.3 μg/ml, PEG 20,000 0.5% w/w
[9] = drug 31.3 μg/ml, PVP 10,000 0.5% w/w
[10] = drug 31.3 μg/ml, PVP 29,000 0.5% w/w
[11] = drug 31.3 μg/ml, PVP 55,000 0.5% w/w
[12] = drug 62.5 μg/ml, Dextran 65,000 0.5% w/w
[13] = drug 62.5 μg/ml, Ethylcellulose A15 0.5% w/w
[14] = drug 62.5 μg/ml, Glycerin (non-polymer) 0.5% w/w
[15] = drug 62.5 μg/ml, HPC 80,000 0.5% w/w
[16] = drug 62.5 μg/ml, HPMC E15 0.5% w/w
[17] = drug 62.5 μg/ml, Na CMC 250,000 0.5% w/w
[18] = drug 62.5 μg/ml, PEG 8,000 0.5% w/w
[19] = drug 62.5 μg/ml, PEG 20,000 0.5% w/w
[20] = drug 62.5 μg/ml, PVP 10,000 0.5% w/w
[21] = drug 62.5 μg/ml, PVP 29,000 0.5% w/w
[22] = drug 62.5 μg/ml, PVP 55,000 0.5% w/w
[23] = drug 125 μg/ml, Dextran 65,000 0.5% w/w
[24] = drug 125 μg/ml, Ethylcellulose A15 0.5% w/w
[25] = drug 125 μg/ml, Glycerin (non-polymer) 0.5% w/w
[26] = drug 125 μg/ml, HPC 80,000 0.5% w/w
[27] = drug 125 μg/ml, HPMC E15 0.5% w/w
[28] = drug 125 μg/ml, Na CMC 250,000 0.5% w/w
[29] = drug 125 μg/ml, PEG 8,000 0.5% w/w
[30] = drug 125 μg/ml, PEG 20,000 0.5% w/w
[31] = drug 125 μg/ml, PVP 10,000 0.5% w/w
[32] = drug 125 μg/ml, PVP 29,000 0.5% w/w
[33] = drug 125 μg/ml, PVP 55,000 0.5% w/w
[34] = drug 250 μg/ml, Dextran 65,000 0.5% w/w
[35] = drug 250 μg/ml, Ethylcellulose A15 0.5% w/w
[36] = drug 250 μg/ml, Glycerin (non-polymer) 0.5% w/w
[37] = drug 250 μg/ml, HPC 80,000 0.5% w/w
[38] = drug 250 μg/ml, HPMC E15 0.5% w/w
[39] = drug 250 μg/ml, Na CMC 250,000 0.5% w/w
[40] = drug 250 μg/ml, PEG 8,000 0.5% w/w
[41] = drug 250 μg/ml, PEG 20,000 0.5% w/w
[42] = drug 250 μg/ml, PVP 10,000 0.5% w/w
[43] = drug 250 μg/ml, PVP 29,000 0.5% w/w
[44] = drug 250 μg/ml, PVP 55,000 0.5% w/w

Cc1ccc(-c2cc(C(F)(F)F)nn2-c2ccc(S(N)(=O)=O)cc2)cc1 [Celecoxib, 4-[5-(4-methylphenyl)-3-(trifluoromethyl)-1H-pyrazol-1-yl]benzenesulfonamide]
Absorbance [1]: 0.033
Absorbance [2]: 0.041
Absorbance [3]: 0.038
Absorbance [4]: 0.034
Absorbance [5]: 0.037
Absorbance [6]: 0.046
Absorbance [7]: 0.031
Absorbance [8]: 0.039
Absorbance [9]: 0.035
Absorbance [10]: 0.031
Absorbance [11]: 0.04
Absorbance (drug 31.3 μg/ml, polymer None): 0.036
Absorbance [12]: 0.076
Absorbance [13]: 0.039
Absorbance [14]: 0.07
Absorbance [15]: 0.038
Absorbance [16]: 0.039
Absorbance [17]: 0.078
Absorbance [18]: 0.169
Absorbance [19]: 0.16
Absorbance [20]: 0.041
Absorbance [21]: 0.037
Absorbance [22]: 0.049
Absorbance (drug 62.5 μg/ml, polymer None): 0.069
Absorbance [23]: 0.266
Absorbance [24]: 0.06
Absorbance (drug 125 μg/ml, Ethylcellulose A15 0.5% w/w, listed as celecoxib): reduced turbidity
Absorbance [25]: 0.184
Absorbance [26]: 0.05
Absorbance (drug 125 μg/ml, HPC 80,000 0.5% w/w, listed as celecoxib): reduced turbidity
Absorbance [27]: 0.049
Absorbance (drug 125 μg/ml, HPMC E15 0.5% w/w, listed as celecoxib): reduced turbidity
Absorbance [28]: 0.083
Absorbance (drug 125 μg/ml, Na CMC 250,000 0.5% w/w, listed as celecoxib): reduced turbidity
Absorbance [29]: 0.308
Absorbance [30]: 0.342
Absorbance [31]: 0.072
Absorbance (drug 125 μg/ml, PVP 10,000 0.5% w/w, listed as celecoxib): reduced turbidity
Absorbance [32]: 0.064
Absorbance (drug 125 μg/ml, PVP 29,000 0.5% w/w, listed as celecoxib): reduced turbidity
Absorbance [33]: 0.048
Absorbance (drug 125 μg/ml, PVP 55,000 0.5% w/w, listed as celecoxib): reduced turbidity
Absorbance (drug 125 μg/ml, polymer None): 0.146
Absorbance [34]: 0.379
Absorbance [35]: 0.085
Absorbance (drug 250 μg/ml, Ethylcellulose A15 0.5% w/w, listed as celecoxib): reduced turbidity
Absorbance [36]: 0.41
Absorbance [37]: 0.11
Absorbance (drug 250 μg/ml, HPC 80,000 0.5% w/w, listed as celecoxib): reduced turbidity
Absorbance [38]: 0.093
Absorbance (drug 250 μg/ml, HPMC E15 0.5% w/w, listed as celecoxib): reduced turbidity
Absorbance [39]: 0.148
Absorbance (drug 250 μg/ml, Na CMC 250,000 0.5% w/w, listed as celecoxib): reduced turbidity
Absorbance [40]: 0.485
Absorbance [41]: 0.654
Absorbance [42]: 0.2
Absorbance (drug 250 μg/ml, PVP 10,000 0.5% w/w, listed as celecoxib): reduced turbidity
Absorbance [43]: 0.118
Absorbance (drug 250 μg/ml, PVP 29,000 0.5% w/w, listed as celecoxib): reduced turbidity
Absorbance [44]: 0.105
Absorbance (drug 250 μg/ml, PVP 55,000 0.5% w/w, listed as celecoxib): reduced turbidity
Absorbance (drug 250 μg/ml, polymer None): 0.376

Cc1onc(-c2ccccc2)c1-c1ccc(S(N)(=O)=O)cc1 [Valdecoxib, 4-[5-methyl-3-phenylisoxazol-4-yl]benzenesulfonamide]
Absorbance [1]: 0.03
Absorbance [2]: 0.033
Absorbance [3]: 0.03
Absorbance [4]: 0.031
Absorbance [5]: 0.032
Absorbance [6]: 0.03
Absorbance [7]: 0.03
Absorbance [8]: 0.031
Absorbance [9]: 0.032
Absorbance [10]: 0.03
Absorbance [11]: 0.032
Absorbance (drug 31.3 μg/ml, polymer None): 0.031
Absorbance [12]: 0.031
Absorbance [13]: 0.033
Absorbance [14]: 0.028
Absorbance [15]: 0.032
Absorbance [16]: 0.034
Absorbance [17]: 0.036
Absorbance [18]: 0.03
Absorbance [19]: 0.031
Absorbance [20]: 0.034
Absorbance [21]: 0.03
Absorbance [22]: 0.031
Absorbance (drug 62.5 μg/ml, polymer None): 0.029
Absorbance [23]: 0.033
Absorbance [24]: 0.033
Absorbance [25]: 0.029
Absorbance [26]: 0.046
Absorbance [27]: 0.034
Absorbance [28]: 0.09
Absorbance [29]: 0.03
Absorbance [30]: 0.031
Absorbance [31]: 0.032
Absorbance [32]: 0.032
Absorbance [33]: 0.032
Absorbance (drug 125 μg/ml, polymer None): 0.029
Absorbance [34]: 0.289
Absorbance [35]: 0.052
Absorbance (drug 250 μg/ml, Ethylcellulose A15 0.5% w/w, listed as valdecoxib): reduced turbidity
Absorbance [36]: 0.229
Absorbance [37]: 0.093
Absorbance (drug 250 μg/ml, HPC 80,000 0.5% w/w, listed as valdecoxib): reduced turbidity
Absorbance [38]: 0.064
Absorbance (drug 250 μg/ml, HPMC E15 0.5% w/w, listed as valdecoxib): reduced turbidity
Absorbance [39]: 0.174
Absorbance (drug 250 μg/ml, Na CMC 250,000 0.5% w/w, listed as valdecoxib): reduced turbidity
Absorbance [40]: 0.345
Absorbance [41]: 0.433
Absorbance [42]: 0.321
Absorbance [43]: 0.183
Absorbance (drug 250 μg/ml, PVP 29,000 0.5% w/w, listed as valdecoxib): reduced turbidity
Absorbance [44]: 0.162
Absorbance (drug 250 μg/ml, PVP 55,000 0.5% w/w, listed as valdecoxib): reduced turbidity
Absorbance (drug 250 μg/ml, polymer None): 0.185
